Values of other authors, collected in patent publication US20090215892A1, “Octanol Formulations and Methods of Treatment Using the Same” (priority 2005, published 2009).
Blank lines part the entries; values can stand above or below the compound they belong to.

What was measured:
mice = details: tested orally in mice
essential tremor [1] = details: twelve patients
essential tremor [2] = details: lactose capsule form
[3] = ordinary conditions of use and storage
[4] = tested on: hereditary essential tremor; details: patients with hereditary essential tremor

SMILES: CCCCCCCCO [Example 1-octanol, 1-octanol]
solubility in water: slightly soluble
Solubility in Water at 40° C. (Wt %): 0.065 Wt %
toxicity LD5O (mice): 1790 mg/kg
duration of reduction of peak tremor amplitude versus baseline (essential tremor [1]; 1 mg/kg 1-octanol, no improvement in placebo group (Bushara 2002)): up to 2 hours
change of tremor amplitude frequency (essential tremor [1]; single oral dose of 1 mg/kg, anhydrous lactose coated capsule (Bushara 2004)): decrease
side-effect noted (essential tremor [2]; single oral doses up to 64 mg/kg): unusual taste
tolerated dose (essential tremor [2]; single oral doses, patients with essential tremor): up to 64 mg/kg
stability [3]: stable

Solubility in Water at 40° C. (Wt %): 0.089 Wt %
SMILES: CCCCCCC(C)O (centres unmarked) [Example 2-octanol, 2-octanol]

Solubility in Water at 40° C. (Wt %): 0.095 Wt %
SMILES: CCCCC(O)CCC (centres unmarked) [Example 4-octanol, 4-octanol]

SMILES: CCO [ethanol]
patients in whom treatment was effective [4]: 50%
